Data on twelve molecules can be found in article PMC12377313, “New 1E,1′E-hydrazine-bis(phenoxy-1,2,3-triazol-acetamide) derivatives as potent inhibitors against acetylcholinesterase, butyrylcholinesterase, and α-glucosidase” (RSC Advances, 2025).

One assay has as its target AChE (Homo sapiens, UniProt P22303). Put plainly: biochemical. The class given is biochemical.
The next assay has as its target α-glucosidase (Saccharomyces cerevisiae, UniProt P53341). Nature of the assay: α-Glucosidase inhibition assay (p-NPG substrate). The class given is biochemical, yeast. As to the method: For this assay, the yeast form of α-glucosidase was used and p-nitrophenyl-α-D-glycopyranoside (p-NPG) was used as the substrate. The required solutions of these materials were prepared in a phosphate buffer solution (pH of 7.4 and a concentration of 5 mM). […] Subsequently, a mixture containing 200 μL of phosphate solution, 50 μL of the substrate, and 5–200 μL of the sample solution was pre-incubated at 35 °C for 3 min for α-glucosidase.

Assay [1] concerns SH-SY5Y neuroblastoma cells. Nature of the assay: MTT cell viability assay, SH-SY5Y. The class given is cell-based, human. The following applies: for Selectivity (selectivity index): HEK293 versus SH-SY5Y; for IC50: read-out: IC50 (μM) SH-SY5Y. On the procedure:
The cells were incubated at 37 °C in a humidified atmosphere of 5% CO2. Both cell lines were provided by the American Type Culture Collection (ATCC).[30,31]
Each concentration was tested in triplicate.
(§1) Following treatment, 10 μL of MTT solution (5 mg mL^−1 in PBS) was added to each well and incubated for an additional 4 hours under the same conditions. At the end of the incubation period, the medium containing MTT was carefully removed, and the formazan crystals formed by viable cells were solubilized in 100 μL of DMSO per well. The absorbance was measured at 570 nm using a microplate reader. The net absorbance (after blank subtraction) was used to calculate the percentage cell viability relative to the untreated control cells, which was set at 100%. All results were expressed as mean ± standard deviation (SD) of three independent experiments.[32,33]
Background: Tetrazolium assays rely on reduction of a dye to a coloured formazan, in cell work by metabolically active cells.

Assay [2] concerns HEK293 embryonic kidney cells. Put plainly: MTT cell viability assay, HEK293. The class given is cell-based. The following applies: Homo sapiens, read-out: IC50 (μM) HEK-293. On the procedure: The human neuroblastoma cell line SH-SY5Y (ATCC® CRL-2266™) and HEK293 (ATCC® CRL-1573™) human embryonic kidney cells were grown in Dulbecco's Modified Eagle Medium/Nutrient Mixture F-12 (DMEM/F-12) culture containing 10% heat-inactivated fetal bovine serum (FBS) and 1% antibiotics. The cells were incubated at 37 °C in a humidified atmosphere of 5% CO2. Both cell lines were provided by the American Type Culture Collection (ATCC).[30,31]
SH-SY5Y (ATCC® CRL-2266™) and HEK293 (ATCC® CRL-1573™) cells were seeded into 96-well plates at a density of 5 × 10^3 cells per well, and allowed to adhere overnight in a humidified incubator at 37 °C with 5% CO2. After attachment, the cells were treated with eight different concentrations of the target compounds (200, 100, 50, 25, 12.5, 6.25, 3.125, and 1.5625 μM), prepared via serial 1 : 2 dilutions, for 24 hours. Each concentration was tested in triplicate.
as §1

Another assay concerns the target BChE (Homo sapiens, UniProt P06276). Put plainly: biochemical.
The mark [3] stands for this setting: Homo sapiens, SH-SY5Y, 24 h, 24 h treatment, MTT, mean ± SD (n = 3).
The mark [4] stands for this setting: HEK293, 24 h treatment, MTT, mean ± SD (n = 3).
The mark [5] stands for this setting: 24 h treatment, MTT, mean ± SD (n = 3).

Structures are written as SMILES. Read-outs that look alike come from different tables or passages of the source. Where only a bound is given, the exact number is not on record here.

BChE, sequence (P06276 29-602): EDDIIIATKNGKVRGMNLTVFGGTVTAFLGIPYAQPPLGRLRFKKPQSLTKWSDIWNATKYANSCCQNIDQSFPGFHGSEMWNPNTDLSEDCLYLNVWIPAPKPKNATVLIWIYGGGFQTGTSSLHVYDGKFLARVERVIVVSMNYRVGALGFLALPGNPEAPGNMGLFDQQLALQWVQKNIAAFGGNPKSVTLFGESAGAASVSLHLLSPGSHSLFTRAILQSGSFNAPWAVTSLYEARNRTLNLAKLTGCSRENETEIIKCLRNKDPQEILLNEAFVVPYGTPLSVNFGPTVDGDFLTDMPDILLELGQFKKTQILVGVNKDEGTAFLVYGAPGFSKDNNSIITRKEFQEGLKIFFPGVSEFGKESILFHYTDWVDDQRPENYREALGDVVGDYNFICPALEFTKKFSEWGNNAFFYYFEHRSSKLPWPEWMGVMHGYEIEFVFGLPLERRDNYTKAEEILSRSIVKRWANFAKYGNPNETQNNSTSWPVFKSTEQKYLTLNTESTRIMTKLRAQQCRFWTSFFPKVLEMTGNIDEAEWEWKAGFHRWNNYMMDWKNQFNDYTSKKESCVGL
α-glucosidase, sequence (P53341 whole entry): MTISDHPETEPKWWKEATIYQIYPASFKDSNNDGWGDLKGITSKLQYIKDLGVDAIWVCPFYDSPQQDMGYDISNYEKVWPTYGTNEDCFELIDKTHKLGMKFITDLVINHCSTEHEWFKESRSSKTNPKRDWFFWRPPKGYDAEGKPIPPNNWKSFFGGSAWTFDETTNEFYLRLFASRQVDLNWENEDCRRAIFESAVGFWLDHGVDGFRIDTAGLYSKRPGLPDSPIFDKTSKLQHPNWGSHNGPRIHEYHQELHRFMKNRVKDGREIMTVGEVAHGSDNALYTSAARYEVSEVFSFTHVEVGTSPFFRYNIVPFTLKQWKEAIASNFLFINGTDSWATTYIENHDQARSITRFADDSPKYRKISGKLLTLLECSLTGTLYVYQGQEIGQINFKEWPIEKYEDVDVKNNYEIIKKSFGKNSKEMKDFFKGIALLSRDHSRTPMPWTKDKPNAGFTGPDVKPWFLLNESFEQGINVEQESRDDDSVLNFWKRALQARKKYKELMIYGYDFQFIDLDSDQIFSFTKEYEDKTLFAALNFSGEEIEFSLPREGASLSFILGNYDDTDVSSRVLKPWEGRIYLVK
AChE, sequence (P22303 32-614): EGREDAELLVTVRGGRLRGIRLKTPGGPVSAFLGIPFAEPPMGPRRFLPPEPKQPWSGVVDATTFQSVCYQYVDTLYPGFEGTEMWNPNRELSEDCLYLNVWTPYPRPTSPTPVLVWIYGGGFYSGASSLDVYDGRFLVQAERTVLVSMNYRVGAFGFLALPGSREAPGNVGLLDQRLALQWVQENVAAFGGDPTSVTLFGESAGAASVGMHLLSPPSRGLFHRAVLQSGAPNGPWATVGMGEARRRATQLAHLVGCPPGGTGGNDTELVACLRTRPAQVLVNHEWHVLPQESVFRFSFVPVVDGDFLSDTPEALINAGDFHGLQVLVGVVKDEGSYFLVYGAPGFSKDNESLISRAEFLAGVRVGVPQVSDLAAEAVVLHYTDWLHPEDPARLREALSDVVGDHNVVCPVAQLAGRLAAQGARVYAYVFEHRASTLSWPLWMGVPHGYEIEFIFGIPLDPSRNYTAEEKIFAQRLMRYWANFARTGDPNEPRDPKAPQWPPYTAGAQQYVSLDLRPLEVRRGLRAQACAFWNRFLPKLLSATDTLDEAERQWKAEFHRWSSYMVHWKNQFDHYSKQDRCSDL

Consider `Cc1ccccc1NC(=O)Cn1cc(COc2ccc(/C=N/N=C/c3ccc(OCc4cn(CC(=O)Nc5ccccc5C)nn4)cc3)cc2)nn1` [Compound 10a, 2,2′-((((((1E,1′E)-Hydrazine-1,2-diylidenebis(methaneylylidene))bis(4,1-phenylene))bis(oxy))bis(methylene))bis(1H-1,2,3-triazole-4,1-diyl))bis(N-(o-tolyl)acetamide)], for which the IC50 (as a rule, the midpoint of a concentration-inhibition curve) was determined as 163 ± 5.38 nM on AChE (read-out: IC50 (nM) AChE); 43.1 ± 8.21 nM on α-glucosidase; 8.22 ± 0.12 µM in assay [1] (setting [3]); 78.21 ± 0.42 µM in assay [2] (setting [4]); 18.4 ± 3.09 nM at BChE. Moreover, the “Selectivity (selectivity index)” value in assay [1] was 9.5.

On to `Cc1cccc(NC(=O)Cn2cc(COc3ccc(/C=N/N=C/c4ccc(OCc5cn(CC(=O)Nc6cccc(C)c6)nn5)cc4)cc3)nn2)c1` [Compound 10b, 2,2′-((((((1E,1′E)-Hydrazine-1,2-diylidenebis(methaneylylidene))bis(4,1-phenylene))bis(oxy))bis(methylene))bis(1H-1,2,3-triazole-4,1-diyl))bis(N-(m-tolyl)acetamide)], for which the IC50 at AChE (read-out: IC50 (nM) AChE) came out at 167 ± 9.46 nM; against α-glucosidase, 62.1 ± 5.43 nM; in assay [1] (setting [3]), 15.8 ± 0.2 µM; in assay [2] (setting [4]), 43.42 ± 0.36 µM; at BChE, 18.3 ± 4.84 nM. In addition, the “Selectivity (selectivity index)” value in assay [1] was 2.7.

Take `Cc1ccc(NC(=O)Cn2cc(COc3ccc(/C=N/N=C/c4ccc(OCc5cn(CC(=O)Nc6ccc(C)cc6)nn5)cc4)cc3)nn2)cc1` [Compound 10c, 2,2′-((((((1E,1′E)-Hydrazine-1,2-diylidenebis(methaneylylidene))bis(4,1-phenylene))bis(oxy))bis(methylene))bis(1H-1,2,3-triazole-4,1-diyl))bis(N-(p-tolyl)acetamide)]: the IC50 at AChE (read-out: IC50 (nM) AChE) was 164 ± 9.7 nM; on α-glucosidase, 67 ± 7.88 nM; in assay [1] (setting [5]) it was 11.9 ± 0.2 µM; in assay [1] (setting [3]), 12 to 16 µM; in assay [2] (setting [4]), 46.91 ± 0.32 µM; at BChE, 17.1 ± 3.21 nM. In addition, in assay [1], the “Selectivity (selectivity index)” value stood at 3.9.

For `Cc1cccc(NC(=O)Cn2cc(COc3ccc(/C=N/N=C/c4ccc(OCc5cn(CC(=O)Nc6cccc(C)c6C)nn5)cc4)cc3)nn2)c1C` [Compound 10d, 2,2′-((((((1E,1′E)-Hydrazine-1,2-diylidenebis(methaneylylidene))bis(4,1-phenylene))bis(oxy))bis(methylene))bis(1H-1,2,3-triazole-4,1-diyl))bis(N-(2,3-dimethylphenyl)acetamide)], the IC50 was 131 ± 7.23 nM at AChE (read-out: IC50 (nM) AChE); 71.2 ± 8.14 nM on α-glucosidase; 16.4 ± 0.21 µM in assay [1] (setting [5]); 12 to 16 µM in assay [1] (setting [3]); 75.22 ± 0.35 µM in assay [2] (setting [4]); 14.9 ± 2.08 nM against BChE. Further, the “Selectivity (selectivity index)” value in assay [1] stood at 4.6.

On to `COc1ccc(NC(=O)Cn2cc(COc3ccc(/C=N/N=C/c4ccc(OCc5cn(CC(=O)Nc6ccc(OC)cc6OC)nn5)cc4)cc3)nn2)c(OC)c1` [Compound 10e, 2,2′-((((((1E,1′E)-Hydrazine-1,2-diylidenebis(methaneylylidene))bis(4,1-phenylene))bis(oxy))bis(methylene))bis(1H-1,2,3-triazole-4,1-diyl))bis(N-(2,4-dimethoxyphenyl)acetamide)], for which the IC50 at AChE (read-out: IC50 (nM) AChE) is 140 ± 9.43 nM; at α-glucosidase, 58.5 ± 4.27 nM; in assay [1] (setting [5]), 33.19 ± 0.25 µM; in assay [1] (setting [3]), > 30 µM; in assay [2] (setting [4]) it was 68.95 ± 0.41 µM; against BChE it was 16.3 ± 2.09 nM. Also, the “Selectivity (selectivity index)” value in assay [1] was found to be 2.1.

For the molecule `CCc1ccc(NC(=O)Cn2cc(COc3ccc(/C=N/N=C/c4ccc(OCc5cn(CC(=O)Nc6ccc(CC)cc6)nn5)cc4)cc3)nn2)cc1` [Compound 10f, 2,2′-((((((1E,1′E)-Hydrazine-1,2-diylidenebis(methaneylylidene))bis(4,1-phenylene))bis(oxy))bis(methylene))bis(1H-1,2,3-triazole-4,1-diyl))bis(N-(4-ethylphenyl)acetamide)], the IC50 at AChE (read-out: IC50 (nM) AChE) amounted to 159 ± 6.17 nM; at α-glucosidase, 66.4 ± 4.43 nM; in assay [1] (setting [3]) it was 7.33 ± 0.11 µM; in assay [2] (setting [4]) it was 33.2 ± 0.55 µM; against BChE, 17 ± 5.46 nM. Also, the “Selectivity (selectivity index)” value in assay [1] stood at 4.5.

On to `O=C(Cn1cc(COc2ccc(/C=N/N=C/c3ccc(OCc4cn(CC(=O)Nc5ccccc5F)nn4)cc3)cc2)nn1)Nc1ccccc1F` [Compound 10g, 2,2′-((((((1E,1′E)-Hydrazine-1,2-diylidenebis(methaneylylidene))bis(4,1-phenylene))bis(oxy))bis(methylene))bis(1H-1,2,3-triazole-4,1-diyl))bis(N-(2-fluorophenyl)acetamide)], for which the IC50 at AChE (read-out: IC50 (nM) AChE) was found to be 112 ± 9.6 nM; on α-glucosidase, 56.7 ± 6.34 nM; in assay [1] (setting [3]) it was 12.9 ± 0.13 µM; in assay [2] (setting [4]), 86.45 ± 0.52 µM; at BChE it was 12.4 ± 3.21 nM. Besides, the “Selectivity (selectivity index)” value in assay [1] is on record as 6.7.

As for `O=C(Cn1cc(COc2ccc(/C=N/N=C/c3ccc(OCc4cn(CC(=O)Nc5cccc(Cl)c5)nn4)cc3)cc2)nn1)Nc1cccc(Cl)c1` [Compound 10i, 2,2′-((((((1E,1′E)-Hydrazine-1,2-diylidenebis(methaneylylidene))bis(4,1-phenylene))bis(oxy))bis(methylene))bis(1H-1,2,3-triazole-4,1-diyl))bis(N-(3-chlorophenyl)acetamide)], the IC50 at AChE (read-out: IC50 (nM) AChE) was determined as 164 ± 9.54 nM; against α-glucosidase it was 45.8 ± 4.71 nM; in assay [1] (setting [3]), 4.26 ± 0.08 µM; in assay [2] (setting [4]), 37.4 ± 0.55 µM; at BChE, 15.3 ± 3.16 nM. For the same molecule, in assay [1], the “Selectivity (selectivity index)” value turned out to be 8.8.

As to `O=C(Cn1cc(COc2ccc(/C=N/N=C/c3ccc(OCc4cn(CC(=O)Nc5ccc(Cl)cc5)nn4)cc3)cc2)nn1)Nc1ccc(Cl)cc1` [Compound 10j, 2,2′-((((((1E,1′E)-Hydrazine-1,2-diylidenebis(methaneylylidene))bis(4,1-phenylene))bis(oxy))bis(methylene))bis(1H-1,2,3-triazole-4,1-diyl))bis(N-(4-chlorophenyl)acetamide)], the IC50 was 145 ± 6.23 nM on AChE (read-out: IC50 (nM) AChE); 34.3 ± 3.49 nM against α-glucosidase; 6.75 ± 0.18 µM in assay [1] (setting [3]); 67.43 ± 0.47 µM in assay [2] (setting [4]); 16.4 ± 4.43 nM against BChE. In addition, the “fold diminished anti-AChE inhibitory activity relative to 10k” value at AChE (removal of 2-chloro substituent, versus 10k) came out at 1.3 fold. Besides, the “folds more potent than the standard inhibitor acarbose against α-glucosidase” value at α-glucosidase (relative to acarbose) is on record as 1.7 fold. In assay [1], the “Selectivity (selectivity index)” value was found to be 10.0.

Turning to `O=C(Cn1cc(COc2ccc(/C=N/N=C/c3ccc(OCc4cn(CC(=O)Nc5ccc(Br)cc5)nn4)cc3)cc2)nn1)Nc1ccc(Br)cc1` [Compound 10l, 2,2′-((((((1E,1′E)-Hydrazine-1,2-diylidenebis(methaneylylidene))bis(4,1-phenylene))bis(oxy))bis(methylene))bis(1H-1,2,3-triazole-4,1-diyl))bis(N-(4-bromophenyl)acetamide)], the IC50 at AChE (read-out: IC50 (nM) AChE) was 148 ± 8.23 nM; against α-glucosidase it was 39.1 ± 5.1 nM; in assay [1] (setting [5]), 42.15 ± 0.37 µM; in assay [1] (setting [3]), > 30 µM; in assay [2] (setting [4]) it was 92.86 ± 0.71 µM; on BChE it was 16.4 ± 4.74 nM. Further, the “Selectivity (selectivity index)” value in assay [1] is 2.2.

For `O=C(Cn1cc(COc2ccc(/C=N/N=C/c3ccc(OCc4cn(CC(=O)Nc5ccccc5[N+](=O)[O-])nn4)cc3)cc2)nn1)Nc1ccccc1[N+](=O)[O-]` [Compound 10m, 2,2′-((((((1E,1′E)-Hydrazine-1,2-diylidenebis(methaneylylidene))bis(4,1-phenylene))bis(oxy))bis(methylene))bis(1H-1,2,3-triazole-4,1-diyl))bis(N-(2-nitrophenyl)acetamide)], the IC50 on AChE amounted to 157 ± 8.65 nM; on α-glucosidase (read-out: IC50 (nM) α-Glucosidase) it was 36.6 ± 4.86 nM; in assay [1] (Homo sapiens, SH-SY5Y, 24 h) it was 28.33 ± 0.26 µM; in assay [2] (HEK293, 24 h), 46.45 ± 0.45 µM; against BChE, 16.9 ± 4.83 nM. The “Selectivity (selectivity index)” value in assay [1] was determined as 1.6.

`CNC(=O)c1cc(Oc2ccc(NC(=O)Nc3ccc(Cl)c(C(F)(F)F)c3)cc2)ccn1` [Sorafenib, reference compound]: the IC50 in assay [1] (setting [3]) is 3.88 ± 0.12 µM; in assay [2] (setting [4]), 16.22 ± 0.14 µM.
